# Like-named read-outs stand apart in the source and are kept apart here.
# Legend:
# [1] = In vitro metabolism assay, human liver microsomes, Assay Conditions A; format: in vitro ADME; settings: 0.5 μM compound, 10 minutes, 37° C.
# Protocol: Test compound is received as a 3.5 mM stock solution in 100 percent DMSO. Compound is diluted to create a 50 μM acetonitrile (ACN) solution containing 1.4% DMSO, which is then used as a 100× stock for incubation with microsomes. Each compound is tested in duplicate separately in each of three species in the Metabolic Stability-Human, Rat, and Mouse assay suite or as individual species in the Metabolic Stability-Dog or Metabolic Stability-Monkey suites. Compound, NADPH and liver microsome solutions are combined for incubation in three steps:
# 152 μL of liver microsome suspension, protein concentration of 1.1 mg/mL in 100 mM NaPi, pH 7.4, 6.6 mM MgCl2 buffer, is pre-warmed at 37° C.
# • 1) 1.7 μL of 50 μM compound (98.6% ACN, 1.4% DMSO) is added to the same tube and pre-incubated at 37° C. for 5 minutes. • 2) The reaction is initiated by the addition of 17 μL of pre-warmed 10 mM NADPH solution in 100 mM NaPi, pH 7.4. • 3) Reaction components are mixed well, and 75 μL are immediately transferred into 150 μl quench/stop solution (zero-time point, T0). Reactions are incubated at 37° C. for 10 minutes and then an additional 75 μL aliquot is transferred into 150 μL quench solution. Acetonitrile containing 100 μM DMN (a UV standard for injection quality control), is used as the quench solution to terminate metabolic reactions. • 4) Quenched mixtures are centrifuged at 1500 rpm (˜500×g) in an Allegra X-12 centrifuge, SX4750 rotor (Beckman Coulter Inc., Fullerton, Calif.) for fifteen minutes to pellet denatured microsomes. A volume of 90 μL of supernatant extract, containing the mixture of parent compound and its metabolites, is then transferred to a separate 96-well plate for UV-LC/MS-MS analysis to determine the percent of parent compound that is remaining in the mixture. • 5)
# [2] = In vitro metabolism assay, human liver microsomes, Assay Conditions B; format: in vitro ADME; settings: 10 min, 3 μM, pH 7.4
# Protocol: Test compound is received as 20 mM in DMSO. Compound is diluted to create a 300 μM acetonitrile (ACN) solution containing 1.5% DMSO, which is then used as a 100× stock for incubation with microsomes. Each compound is tested in duplicate separately in each of three species in the Metabolic Stability-Human, Rat, Mouse assay suite or individual species in the Metabolic Stability-Dog or Metabolic Stability-Monkey suites. Compound, NADPH and liver microsome solutions are combined for incubation in three steps: • 1. 450 μL of liver microsome suspension, protein concentration of 1 mg/mL in 100 mM NaPi, pH. 7.4, 6.6 mM MgCl2 buffer, are pre-warmed at 37° C. • 2. 5 μl of 300 μM compound (98.5% CAN, 1.5% DMSO) is added to the same tube. • 3. The reaction is initiated by the addition of 50 μl of pre-warmed 5 mM NADPH solution in 100 mM NaPi, pH 7.4.
# Reaction components are mixed well and 150 μL removed to quench/stop solution immediately for the zero-minute time point. Reactions are incubated at 37° C. for 10 minutes and then an additional 150 μL removed from incubation. Aliquots removed are combined with 300 μL ACN which contains 100 μM DMN as a UV standard for detection.
# Quenched mixtures are centrifuged at 1500 rpm (˜500×g) in an Allegra X-12 centrifuge, SX4750 rotor (Beckman Coulter Inc., Fullerton, Calif.) for fifteen minutes to pellet denatured microsomes. A volume of 110 μl of supernatant extract, containing the mixture of parent compound and its metabolites, is then transferred to a separate 96-well plate for UV-LC/MS-MS analysis to determine the percent of parent compound that is remaining in the mixture.
# [3] = target: hERG (Homo sapiens (Human), UniProt Q12809); assay: hERG patch clamp assay; format: cell-based; settings: HEK-293 cells stably expressing hERG, pH 7.4, protein-free buffer, read-out: hERG, % inh @ 30 μM
# Sequence of hERG (Q12809 whole entry): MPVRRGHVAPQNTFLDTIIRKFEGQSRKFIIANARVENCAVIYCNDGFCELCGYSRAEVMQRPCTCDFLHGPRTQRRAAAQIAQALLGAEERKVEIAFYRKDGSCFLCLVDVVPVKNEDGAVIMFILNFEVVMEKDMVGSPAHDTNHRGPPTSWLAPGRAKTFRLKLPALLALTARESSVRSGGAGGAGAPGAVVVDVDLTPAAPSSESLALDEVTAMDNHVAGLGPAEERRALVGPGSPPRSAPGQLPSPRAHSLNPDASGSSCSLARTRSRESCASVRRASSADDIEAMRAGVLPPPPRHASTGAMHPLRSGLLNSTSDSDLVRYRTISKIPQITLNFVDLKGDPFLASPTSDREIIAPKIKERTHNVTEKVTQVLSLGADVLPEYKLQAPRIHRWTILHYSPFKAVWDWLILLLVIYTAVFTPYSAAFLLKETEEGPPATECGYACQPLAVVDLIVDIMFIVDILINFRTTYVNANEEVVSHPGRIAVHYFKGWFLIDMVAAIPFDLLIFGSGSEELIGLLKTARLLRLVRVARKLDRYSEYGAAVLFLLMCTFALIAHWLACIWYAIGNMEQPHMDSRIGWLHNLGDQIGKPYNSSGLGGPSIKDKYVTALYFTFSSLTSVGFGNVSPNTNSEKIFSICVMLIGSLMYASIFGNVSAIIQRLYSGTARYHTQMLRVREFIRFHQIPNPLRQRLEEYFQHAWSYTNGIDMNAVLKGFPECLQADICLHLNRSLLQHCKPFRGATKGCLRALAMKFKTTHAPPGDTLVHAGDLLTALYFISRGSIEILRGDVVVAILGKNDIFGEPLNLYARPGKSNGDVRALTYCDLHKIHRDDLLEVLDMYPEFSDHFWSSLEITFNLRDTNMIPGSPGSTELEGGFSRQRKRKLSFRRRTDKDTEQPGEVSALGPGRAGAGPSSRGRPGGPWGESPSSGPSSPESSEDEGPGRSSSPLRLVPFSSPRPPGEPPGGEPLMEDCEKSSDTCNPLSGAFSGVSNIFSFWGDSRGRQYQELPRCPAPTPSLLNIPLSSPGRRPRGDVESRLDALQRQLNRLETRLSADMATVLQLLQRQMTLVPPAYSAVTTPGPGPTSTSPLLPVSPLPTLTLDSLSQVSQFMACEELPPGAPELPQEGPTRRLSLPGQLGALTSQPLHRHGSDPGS
# Protocol: Whole-cell patch-clamp was used to directly measure hERG tail currents in HEK-293 cells stably expressing the cloned hERG potassium channel α subunit. Effects of compounds were calculated by measuring inhibition of peak tail current. Experiments were carried out using an aqueous buffer with pH 7.4 at room temperature. There was no protein in the assay buffer. The test concentrations reported are nominal free drug levels.
# [4] = Electrocardiography in anesthetized rabbits; format: in vivo; settings: male, blood, anesthetized rabbit, iv
# Protocol: A dose-response study of test compound was conducted in anesthetized rabbits to assess the cardiac electrophysiologic profile established in the cellular ion channel assays.
# Experiments were performed in propofol-fentanyl anesthetized closed-chest male rabbits. A body surface electrocardiogram (ECG) and an intra-cardiac His-bundle electrogram were continuously monitored and recorded during the studies, using a PoNeMah system and a Prucka electrophysiological recording system, respectively. Test compound was prepared on the day of study in a vehicle of PEG400:ethanol:water (1:1:1) at a dosing concentration of 30 mg/mL. Test compound (n=3) or vehicle (n=3) was given intravenously over 5 minutes via an infusion pump at incremental doses of 3, 10 and 30 mg/kg. The interval between doses was 10 minutes, allowing for a 5-minute test agent infusion and a 5-minute rest period. Blood was sampled at baseline (pre-drug infusion) and immediately at the end of each infusion. For the 30 mg/kg dose, additional blood samples were taken at 10, 20 and 30 minutes after the end of infusion.
# PR interval, QRS duration and QT interval were averaged from a 1 minute ECG recording period at time of blood sampling. QT interval was corrected for heart rate effects using both Fridericia (QTcf) and Van der Water (QTcv) formulae. AH and HV intervals, representing A-V node conduction and His-Purkinje conduction, respectively, were assessed by manual measurements from the His-bundle electrogram. Data were expressed as percent change from pre-drug baseline (mean±SEM) for PR, QRS, AH and HV intervals as well as delta change from the pre-drug infusion baseline (mean±SEM) for QTc intervals. Changes of ≧10% in PR, QRS, and AH intervals, and 20% in HV interval, as well as >10 ms in QTc interval are considered significant based on experience with the model.
# [5] = target: human cardiac sodium channel SCN5A (Homo sapiens (Human), UniProt Q14524); assay: Sodium channel whole-cell patch-clamp assay; format: cell-based; settings: HEK-293 cells expressing human cardiac sodium channel SCN5A, pH 7.4, protein-free buffer, read-out: Na, % inh
# Sequence of human cardiac sodium channel SCN5A (Q14524 whole entry): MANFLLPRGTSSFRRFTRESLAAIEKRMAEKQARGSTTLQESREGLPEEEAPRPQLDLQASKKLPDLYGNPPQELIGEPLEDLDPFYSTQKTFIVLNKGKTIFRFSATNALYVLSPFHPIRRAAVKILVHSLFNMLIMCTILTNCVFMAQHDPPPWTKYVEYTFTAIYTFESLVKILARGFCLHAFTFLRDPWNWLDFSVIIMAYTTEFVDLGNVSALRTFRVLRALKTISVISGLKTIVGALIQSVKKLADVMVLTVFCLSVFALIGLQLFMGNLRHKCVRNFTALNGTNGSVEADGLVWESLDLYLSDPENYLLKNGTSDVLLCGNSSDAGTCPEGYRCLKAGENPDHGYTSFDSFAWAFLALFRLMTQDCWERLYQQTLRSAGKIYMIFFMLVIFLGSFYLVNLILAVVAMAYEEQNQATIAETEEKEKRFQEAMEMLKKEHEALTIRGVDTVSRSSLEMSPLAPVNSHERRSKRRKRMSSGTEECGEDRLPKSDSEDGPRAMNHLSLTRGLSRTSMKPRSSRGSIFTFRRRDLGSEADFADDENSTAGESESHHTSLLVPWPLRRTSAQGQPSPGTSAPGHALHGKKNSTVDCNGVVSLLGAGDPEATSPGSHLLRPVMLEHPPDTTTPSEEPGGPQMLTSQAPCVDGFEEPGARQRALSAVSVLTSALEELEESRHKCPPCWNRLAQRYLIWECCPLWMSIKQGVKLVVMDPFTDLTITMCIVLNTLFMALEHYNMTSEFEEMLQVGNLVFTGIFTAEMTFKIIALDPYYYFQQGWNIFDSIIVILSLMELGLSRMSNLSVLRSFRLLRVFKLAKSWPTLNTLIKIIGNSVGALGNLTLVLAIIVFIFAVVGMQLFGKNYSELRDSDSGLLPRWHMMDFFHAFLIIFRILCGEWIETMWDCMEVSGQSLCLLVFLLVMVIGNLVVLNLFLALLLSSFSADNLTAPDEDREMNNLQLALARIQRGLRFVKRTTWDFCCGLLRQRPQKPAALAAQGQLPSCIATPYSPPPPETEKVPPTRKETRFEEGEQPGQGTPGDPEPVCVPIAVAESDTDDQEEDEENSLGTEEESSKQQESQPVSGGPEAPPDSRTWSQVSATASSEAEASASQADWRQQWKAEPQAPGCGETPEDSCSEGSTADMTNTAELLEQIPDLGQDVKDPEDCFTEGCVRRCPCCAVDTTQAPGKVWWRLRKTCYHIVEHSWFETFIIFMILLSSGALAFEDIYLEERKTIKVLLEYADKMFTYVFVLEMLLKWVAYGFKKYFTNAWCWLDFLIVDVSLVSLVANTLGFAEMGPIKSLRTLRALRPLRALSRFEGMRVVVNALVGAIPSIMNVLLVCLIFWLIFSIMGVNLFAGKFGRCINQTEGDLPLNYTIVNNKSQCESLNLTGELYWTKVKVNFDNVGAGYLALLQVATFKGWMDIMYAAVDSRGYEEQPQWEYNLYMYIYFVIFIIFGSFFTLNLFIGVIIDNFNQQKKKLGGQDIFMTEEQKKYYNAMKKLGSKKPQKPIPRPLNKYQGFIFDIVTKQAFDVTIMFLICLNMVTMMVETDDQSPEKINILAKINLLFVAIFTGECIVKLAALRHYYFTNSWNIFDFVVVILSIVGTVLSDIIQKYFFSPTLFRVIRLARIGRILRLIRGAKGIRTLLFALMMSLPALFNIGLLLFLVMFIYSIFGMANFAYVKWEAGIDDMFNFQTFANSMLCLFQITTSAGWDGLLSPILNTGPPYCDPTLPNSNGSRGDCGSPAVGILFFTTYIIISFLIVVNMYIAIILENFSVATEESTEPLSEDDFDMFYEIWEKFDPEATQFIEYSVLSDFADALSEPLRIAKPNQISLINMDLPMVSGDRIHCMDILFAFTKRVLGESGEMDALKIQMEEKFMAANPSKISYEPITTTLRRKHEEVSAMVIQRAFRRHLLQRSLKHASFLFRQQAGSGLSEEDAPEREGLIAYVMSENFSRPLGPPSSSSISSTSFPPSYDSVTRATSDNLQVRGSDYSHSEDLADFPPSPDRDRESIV
# Protocol: Whole-cell patch-clamp was used to directly measure inward sodium currents in HEK-293 cells expressing the human cardiac sodium channel, SCN5A. After reach steady-state effect in the presence of drug, rate-dependence was assessed by stimulation at frequencies of 1 Hz and 4 Hz. Experiments were carried out using an aqueous buffer at pH 7.4 and at room temperature. There is no protein in the buffer and drug concentrations reported are nominal free drug levels. Test article was evaluated up to 10 μM (protein-free buffer). Rate-dependence of inhibition was assessed by stimulation at frequencies of 1 Hz and 4 Hz.
Human Liver Microsomal Metabolism % remaining (Assay Conditions A) [1],SMILES,Human Liver Microsomal Metabolism % remaining (Assay Conditions B) [2],inhibition at 30 µM [3] [%],"Cmax ([4]; 30 mg/kg, read-out: Cmax: Total drug at QT effect dose) [µM]","Cmax ([4]; NOEL dose 10 mg/kg, read-out: Cmax: Total drug at NOEL dose) [µM]",inhibition at 10 µM [5] [%]
47%,CC(C)[C@@H](NC(=O)C1CCCC1)C(=O)N1CC[C@](O)(c2ccc(Cl)cc2)C(C)(C)C1 [#460],16%,,,,
67%,CC(C)CC(=O)N[C@@H](C(=O)N1CC[C@](O)(c2ccc(Cl)cc2)C(C)(C)C1)C(C)C [#466],33%,,,,
,CC(C)[C@@H](NC(=O)NCC(C)(C)O)C(=O)N1CC[C@](O)(c2ccc(Cl)cc2)C(C)(C)C1 [Compound I],100% (B),29,202,65.2,12

SMILES,Human Liver Microsomal Metabolism % remaining (Assay Conditions A) [1],Human Liver Microsomal Metabolism % remaining (Assay Conditions B) [2],inhibition at 30 µM [3] [%],"Cmax ([4]; 30 mg/kg, read-out: Cmax: Total drug at QT effect dose) [µM]","Cmax ([4]; NOEL dose 10 mg/kg, read-out: Cmax: Total drug at NOEL dose) [µM]",inhibition at 10 µM [5] [%]
CC(C)[C@@H](NC(=O)CC(C)(C)O)C(=O)N1CC[C@](O)(c2ccc(Cl)cc2)C(C)(C)C1 [#1356],100% (A)/100% (B),100% (A)/100% (B),,,,

# — patent publication US8633226B2, “Piperidinyl derivative as a modulator of chemokine receptor activity” (Bristol-Myers Squibb Company, priority 2008, dated 2014)
